In US20160137639A1, “TRIAZOLE-ISOXAZOLE COMPOUND AND MEDICAL USE THEREOF” (JAPAN TOBACCO INC., priority 2012, published 2016) one finds EC50 data, which are given here for 48 compounds.

Test [1] has as its target T1, human RORγ (Homo sapiens, UniProt P51449).
T1 construct: human, NM_005060.3 and from Ser253 to Lys518; expressed in transfected cells; host or cells: CHO cells (transient co-transfection with pG5-Luc reporter)
T1 sequence (P51449 253-518): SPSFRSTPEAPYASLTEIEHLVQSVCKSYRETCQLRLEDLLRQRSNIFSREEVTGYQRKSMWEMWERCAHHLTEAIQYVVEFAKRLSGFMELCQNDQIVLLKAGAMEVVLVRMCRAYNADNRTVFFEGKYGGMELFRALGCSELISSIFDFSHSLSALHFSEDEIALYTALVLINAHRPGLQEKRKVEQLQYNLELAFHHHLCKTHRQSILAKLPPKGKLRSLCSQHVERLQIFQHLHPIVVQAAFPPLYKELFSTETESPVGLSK
Kind of test: Luciferase reporter gene assay of inhibitory effect against RORγ transcriptional activity (GAL4-hRORγ plasmid in CHO cells). Format: cell-based. Conditions: read-out: LUC EC50 (μM) hRORg. In general terms: Reporter assays use an easily measured gene product as a stand-in for the process of interest.

The target in test [2] is T2, mouse RORγ (Mus musculus, UniProt P51450).
T2 construct: mouse, NM_011281.2 and from Ile251 to Lys516; expressed in transfected cells; host or cells: CHO cells (transient co-transfection with pG5-Luc reporter)
T2 sequence (P51450 251-516): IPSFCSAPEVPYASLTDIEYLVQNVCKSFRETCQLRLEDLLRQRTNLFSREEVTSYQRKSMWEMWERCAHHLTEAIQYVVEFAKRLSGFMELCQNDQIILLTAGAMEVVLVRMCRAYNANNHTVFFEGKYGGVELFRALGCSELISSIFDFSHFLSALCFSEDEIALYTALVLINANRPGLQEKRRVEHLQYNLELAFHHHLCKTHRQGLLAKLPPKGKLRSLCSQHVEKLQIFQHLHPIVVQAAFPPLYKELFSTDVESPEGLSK
Kind of test: Luciferase reporter gene assay of inhibitory effect against RORγ transcriptional activity (GAL4-mRORγ plasmid in CHO cells). The note with it: read-out: LUC EC50 (μM) mRORg. The test is classed as cell-based. In a few lines:
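Readout is intracellular luciferase after 2-day compound exposure (8 concentrations, 0.1% DMSO) in CHO cells expressing GAL4 fused to mouse RORγ LBD residues Ile251–Lys516 plus pG5-Luc reporter. EC50 fitted from %-of-control; points showing resazurin-detected cytotoxicity dropped.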

Broadly, the EC50 is the midpoint of the concentration-response curve. In the case of `Cc1ccc(NC(=O)CCc2nnc(CCCC(C)C)n2C2CC2)c(C)c1` [Example F-215], the EC50 in test [1] and in test [2] was less than 3 µM in each case.
As for `Cc1cccc(NC(=O)CCc2nnc(CCCC(C)C)n2C2CC2)c1C` [Example F-216], the EC50 in test [1] and in test [2] was less than 3 µM in each case.
Turning to `COc1cc(C)ccc1CNC(=O)CCc1nnc(CCCC(C)C)n1C1CC1` [Example F-217], the EC50 in test [1] and in test [2] was less than 3 µM each time.
On to `Cc1c(Cl)cccc1NC(=O)CCc1nnc(CCOC(C)C)n1C1CC1` [Example F-218], for which the EC50 in test [1] was more than 3 µM; in test [2], less than 3 µM.
Take `Cc1c(Cl)cccc1NC(=O)CCc1nnc(CNC(=O)C(C)C)n1C1CC1` [Example F-221]: the EC50 in test [1] and in test [2] was more than 3 µM in each case.
Regarding `Cc1c(Cl)cccc1NC(=O)CCc1nnc(CCC(C)(C)C(=O)O)n1C1CC1` [Example F-226], the EC50 in test [1] and in test [2] was more than 3 µM throughout.
As for `CC(=O)N1CC[C@H](C(=O)Nc2ccc(C)cc2C)[C@H]1c1nnc(CCC2CCCCC2)n1C1CC1` [Example F-227], the EC50 in test [1] and in test [2] was less than 3 µM each time.
As to `COc1cc(C)ccc1CNC(=O)[C@H]1CCN(C(C)=O)[C@@H]1c1nnc(CCC2CCCCC2)n1C1CC1` [Example F-228], the EC50 in test [1] and in test [2] was less than 3 µM throughout.
Take `COc1cc(F)ccc1CNC(=O)CCc1nnc(CCC(C)C)n1C1CC1` [Example F-229]: the EC50 in test [1] and in test [2] was more than 3 µM throughout.
On to `COC(=O)C(C)(C)CCCc1nnc(CCC(=O)Nc2cccc(Cl)c2C)n1C1CC1` [Example F-230], for which the concentration giving a half-maximal response (EC50) in test [1] and in test [2] was less than 3 µM in each case.
Take `CNC(=O)C(C)(C)CCc1nnc(CCC(=O)Nc2cccc(Cl)c2C)n1C1CC1` [Example F-231]: the EC50 in test [1] and in test [2] was more than 3 µM throughout.
Take `Cc1c(Cl)cccc1NC(=O)CCc1nnc(CCCC(C)(C)C(=O)O)n1C1CC1` [Example F-232]: the EC50 in test [1] and in test [2] was more than 3 µM throughout.
For the compound `CC(=O)N(CCc1nnc(CCC(=O)Nc2cccc(Cl)c2C)n1C1CC1)C(C)C` [Example F-233], the EC50 in test [1] and in test [2] was more than 3 µM throughout.
In the case of `Cc1c(Cl)cccc1NC(=O)CCc1nnc(C2CN(C(=O)OC(C)(C)C)C2)n1C1CC1` [Example F-234], the EC50 in test [1] was more than 3 µM; in test [2], less than 3 µM.
The like results for `CNC(=O)C(C)(C)CCCc1nnc(CCC(=O)Nc2cccc(Cl)c2C)n1C1CC1` [Example F-237] were, in that order, more than 3 µM and more than 3 µM.
Taken in the same sequence, the figures for `Cc1c(Cl)cccc1NC(=O)CCc1nnc(CCCC(C)(C)C(=O)N(C)C)n1C1CC1` [Example F-238] were more than 3 µM and more than 3 µM.
Taken in the same sequence, the figures for `Cc1c(Cl)cccc1NC(=O)CCc1nnc(CCC(C)(C)C(=O)N(C)C)n1C1CC1` [Example F-239] were more than 3 µM and more than 3 µM.
Regarding `CCOC(=O)[C@H]1CC[C@H](CCc2nnc(CCC(=O)Nc3cccc(Cl)c3C)n2C2CC2)CC1` [Example F-240], the EC50 in test [1] was more than 3 µM; in test [2], less than 3 µM.
The like results for `COc1cc(C)ccc1CNC(=O)CCc1nnc(CC[C@H]2CC[C@H](C)CC2)n1C1CC1` [Example F-241] were, in that order, less than 3 µM and less than 3 µM.
Taken in the same sequence, the figures for `COC1CCC(CCc2nnc(CCC(=O)Nc3cccc(Cl)c3C)n2C2CC2)CC1` (stereo not drawn) [Example F-242] were more than 3 µM and less than 3 µM.
Taken in the same sequence, the figures for `Cc1c(Cl)cccc1NC(=O)CCc1nnc(CC[C@H]2CC[C@H](C(=O)O)CC2)n1C1CC1` [Example F-243] were less than 3 µM and more than 3 µM.
On to `Cc1c(Cl)cccc1NC(=O)CCc1nnc(CC[C@H]2CC[C@H](C(F)(F)F)CC2)n1C1CC1` [Example F-250], for which the EC50 in test [1] and in test [2] was more than 3 µM in each case.
On to `COc1cc(C)ccc1CNC(=O)CCc1nnc(CC[C@H]2CC[C@H](C(F)(F)F)CC2)n1C1CC1` [Example F-251], for which the EC50 in test [1] and in test [2] was less than 3 µM throughout.
On to `Cc1c(Cl)cccc1NC(=O)CCc1nnc(CCC2CCC(F)(F)CC2)n1C1CC1` [Example F-254], for which the EC50 in test [1] and in test [2] was less than 3 µM in each case.
Regarding `CNC(=O)[C@H]1CC[C@H](CCc2nnc(CCC(=O)Nc3cccc(Cl)c3C)n2C2CC2)CC1` [Example F-255], the 50% effective concentration (EC50) in test [1] and in test [2] was more than 3 µM each time.
In the case of `Cc1ccc(NC(=O)CCc2nnc(CCC3CCC(F)(F)CC3)n2C2CC2)c(C)c1` [Example F-256], the EC50 in test [1] and in test [2] was less than 3 µM throughout.
`COc1cc(C)ccc1CNC(=O)CCc1nnc(CCC2CCC(F)(F)CC2)n1C1CC1` [Example F-257]: the concentration for a half-maximal effect (EC50) in test [1] and in test [2] was less than 3 µM each time.
For the compound `Cc1c(Cl)cccc1NC(=O)CCc1nnc(CC[C@H]2CC[C@H](C(=O)N(C)C)CC2)n1C1CC1` [Example F-258], the EC50 in test [1] and in test [2] was more than 3 µM each time.
On to `Cc1c(Cl)cccc1NC(=O)CCc1nnc(C2CN(C(=O)C(C)C)C2)n1C1CC1` [Example F-259], for which the EC50 in test [1] and in test [2] was more than 3 µM each time.
`Cc1c(Cl)cccc1NC(=O)CCc1nnc(C2CN(CC(C)C)C2)n1C1CC1` [Example F-260]: the EC50 in test [1] and in test [2] was more than 3 µM in each case.
`Cc1c(Cl)cccc1NC(=O)CCc1nnc(CCN2CCC(F)(F)CC2)n1C1CC1` [Example F-261]: the values for the EC50 in test [1] and in test [2] were more than 3 µM and less than 3 µM, respectively.
The like results for `COc1c(CNC(=O)CCc2nnc(CCC(C)C)n2C2CC2)ccc(C)c1C` [Example F-262] were, in that order, more than 3 µM and more than 3 µM.
Taken in the same sequence, the figures for `COc1cc(C(F)(F)F)ccc1CNC(=O)CCc1nnc(CCC(C)C)n1C1CC1` [Example F-263] were less than 3 µM and less than 3 µM.
Taken in the same sequence, the figures for `Cc1c(Cl)cccc1NC(=O)CCc1nnc(CC(=O)O)n1C1CC1` [Example F-264] were more than 3 µM and more than 3 µM.
Take `COc1cc(C)ccc1CNC(=O)[C@H]1CCCN(C)[C@@H]1c1nnc(CCC2CCCCC2)n1C1CC1` [Example F-267]: the EC50 in test [1] and in test [2] was less than 3 µM each time.
On to `Cc1ccc(NC(=O)CCc2nnc(CCC3(C)CCCCC3)n2C2CC2)c(C)c1` [Example F-269], for which the EC50 in test [1] and in test [2] was less than 3 µM in each case.
For the compound `COc1cc(C)ccc1CNC(=O)CCc1nnc(CCC2(C)CCCCC2)n1C1CC1` [Example F-270], the EC50 in test [1] and in test [2] was less than 3 µM each time.
`Cc1c(Cl)cccc1NC(=O)CCc1nnc([C@H]2CC[C@H](C(C)C)CC2)n1C1CC1` [Example F-280]: the EC50 in test [1] and in test [2] was less than 3 µM in each case.
`CC(=O)N[C@@H](CC(=O)Nc1ccc(C)cc1C)c1nnc(CCCC(C)C)n1C1CC1` [Example F-291]: the EC50 in test [1] and in test [2] was less than 3 µM throughout.
On to `Cc1c(Cl)cccc1NC(=O)CCc1nnc(CCN(C)C(C)(C)C)n1C1CC1` [Example F-294], for which the EC50 in test [1] and in test [2] was more than 3 µM each time.
Regarding `Cc1ccc(NC(=O)[C@H]2CCCN(C)[C@@H]2c2nnc(CCC3CCCCC3)n2C2CC2)c(C)c1` [Example F-295], the concentration giving a half-maximal response (EC50) in test [1] and in test [2] was less than 3 µM throughout.
Consider `CC(=O)N1CC[C@H](C(=O)Nc2ccc(C)cc2C)[C@H]1c1nnc(CCCC(C)(C)C)n1C1CC1` [Example F-296], for which the EC50 in test [1] and in test [2] was less than 3 µM in each case.
On to `COc1cc(C)ccc1CNC(=O)[C@H]1CCN(C(C)=O)[C@@H]1c1nnc(CCCC(C)(C)C)n1C1CC1` [Example F-297], for which the EC50 in test [1] and in test [2] was less than 3 µM throughout.
Take `CC(=O)N1C[C@H](C(=O)Nc2ccc(C)cc2C)[C@@H](c2nnc(C3CC(C(C)C)C3)n2C2CC2)C1` (stereo partly drawn) [Example F-298]: the EC50 in test [1] and in test [2] was less than 3 µM throughout.
For `Cc1ccc(NC(=O)[C@H]2C(=O)N(C)C[C@@H]2c2nnc(CCCC(C)(C)C)n2C2CC2)c(C)c1` [Example F-302], the EC50 in test [1] and in test [2] was less than 3 µM each time.
Take `Cc1ccc(NC(=O)[C@H]2CN(C)C(=O)[C@@H]2c2nnc(CCCC(C)(C)C)n2C2CC2)c(C)c1` [Example F-303]: the EC50 in test [1] and in test [2] was less than 3 µM each time.
As to `Cc1c(Cl)cccc1NC(=O)CCc1nnc(CCOC(C)(C)C(F)(F)F)n1C1CC1` [Example F-304], the EC50 in test [1] and in test [2] was less than 3 µM throughout.
With `Cc1ccc(NC(=O)CCc2nnc(CCCC(C)(C)C)n2C2CC2)c(C)c1` [Example F-305], the half-maximal effective concentration (EC50) in test [1] and in test [2] was less than 3 µM throughout.
